Tests used:
[1] = test system: CSF1R (M-NFS-60 cells); test: Cell Titer-Glo viability assay using M-NFS-60 cells; assay type: cell-based; details: Mus musculus, read-out: Cellular CSF1R activity by M-NFS-60 viability assay (IC50 activity range)
Procedure: M-NFS-60 cells were cultured in RPMI-1640 medium containing 10% FBS, 0.05 mM 2-Mercaptoethanol, penicillin (100 U/ml)/streptomycin ([…]) and supplemented with 62 ng/ml recombinant human M-CSF at 37° C./5% CO2. Aliquots of the cells were seeded into a 96-well plate (2×10^5 cells in 100 μl/well) and then incubated at 37° C./5% CO2 1 h. Dissolve compound in 100% DMSO to make 10 mM stock solutions (Aliquots stored in the Nitrogen Cabinet). Dilute 10 mM compounds solutions for 2-fold in 100% DMSO to get 5 mM solutions (10 μl+10 μl DMSO), and then make a 3-fold serial dilution (10 μl+20 μl DMSO) for 10 doses. For reference compounds: Dilute 10 mM compounds solutions for 20-fold in 100% DMSO to get 0.5 mM solutions (2 μl+38 μl DMSO), and then make a 3-fold serial dilution (10 μl+20 μl DMSO) for 8 doses. The 96-well plate was equilibrated at room temperature for 30 min. 50 μl of CellTiter-Glo® Reagent added to each well and mixed for 2 min on an orbital shaker to induce cell lysis. The 96-well plate was incubated at room temperature for 10 min to stabilize luminescent signal. Luminescent was measured […] by EnVison plate reader. Calculations and Formulas: The following calculations and formulas are used for data analysis using XL Fit software: The curve fitting was made using the Sigmoidal Dose-Response Model (Fit model, 205).

[2] = target: CSF1R (Homo sapiens, UniProt P07333); test: Cellular CSF1R inhibition ELISA (p-CSF1R, M-CSF-induced) using THP-1 cells; assay type: cell-based; set-up: THP-1 cells act as a model for human monocytes; endogenous in cells; host or cells: THP-1
Chain of CSF1R (P07333 20-972): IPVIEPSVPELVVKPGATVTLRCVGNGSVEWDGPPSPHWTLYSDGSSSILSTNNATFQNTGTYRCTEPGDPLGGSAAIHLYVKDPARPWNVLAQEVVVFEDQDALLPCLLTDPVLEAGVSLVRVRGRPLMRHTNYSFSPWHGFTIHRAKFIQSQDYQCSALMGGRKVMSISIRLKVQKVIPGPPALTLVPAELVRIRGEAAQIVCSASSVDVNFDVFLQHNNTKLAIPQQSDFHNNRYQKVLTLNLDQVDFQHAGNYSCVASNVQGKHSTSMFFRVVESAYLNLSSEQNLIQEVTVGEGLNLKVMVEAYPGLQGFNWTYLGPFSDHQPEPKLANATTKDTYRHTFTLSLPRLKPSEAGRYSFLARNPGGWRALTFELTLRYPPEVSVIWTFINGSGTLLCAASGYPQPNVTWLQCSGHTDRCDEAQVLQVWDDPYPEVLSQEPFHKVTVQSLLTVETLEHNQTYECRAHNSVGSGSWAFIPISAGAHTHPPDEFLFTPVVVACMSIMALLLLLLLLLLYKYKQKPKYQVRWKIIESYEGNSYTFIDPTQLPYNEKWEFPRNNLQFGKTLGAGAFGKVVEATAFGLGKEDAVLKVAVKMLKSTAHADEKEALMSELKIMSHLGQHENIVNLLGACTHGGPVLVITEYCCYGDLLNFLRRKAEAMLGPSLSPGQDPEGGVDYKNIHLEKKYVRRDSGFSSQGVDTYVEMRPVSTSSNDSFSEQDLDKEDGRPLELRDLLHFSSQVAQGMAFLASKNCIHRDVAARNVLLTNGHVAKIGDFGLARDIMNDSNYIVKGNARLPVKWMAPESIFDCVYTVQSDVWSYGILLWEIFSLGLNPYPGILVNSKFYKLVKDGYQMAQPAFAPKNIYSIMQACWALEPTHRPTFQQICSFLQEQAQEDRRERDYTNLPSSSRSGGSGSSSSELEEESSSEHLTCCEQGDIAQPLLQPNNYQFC
Summary of the method: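 THP-1 cells (2×10^5/well, RPMI/10% FBS) were treated with compound, 10 doses in 3-fold steps, for 24 h at 37 °C in 0.2% DMSO final. They were then stimulated 5 min with human M-CSF (10 ng/ml final) and lysed. p-CSF1R was read by sandwich ELISA (HRP/TMB), with a sigmoidal dose-response fit.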

Structure (SMILES)	IC50 [2] [nM]	IC50 [1] [nM]
CCn1nc(C(=O)Nc2ccc(Oc3ccnc4cc(OC)c(OC)cc34)cn2)c(OCC(F)(F)F)c1C [Compound 1]	< 500	< 1000
COc1cc2nccc(Oc3ccc(NC(=O)c4nn(C(C)C)c(C)c4OCC(F)(F)F)nc3)c2cc1OC [Compound 2]	< 500	< 1000
COc1cc2nccc(Oc3ccc(NC(=O)c4nn(C5CC5)c(C(C)=O)c4OCC(F)(F)F)nc3)c2cc1OC [Compound 3]	< 500	≥ 10000
COc1cc2nccc(Oc3ccc(NC(=O)c4nn(C5CCOC5)cc4OCC(F)(F)F)nc3)c2cc1OC (centres unmarked) [Compound 13]	< 500	< 1000
CCCn1cc(OCCF)c(C(=O)Nc2ccc(Oc3ccnc4cc(OC)c(OC)cc34)cn2)n1 [Compound 14]	< 500	< 1000
CCCn1cc(OCCC(O)CO)c(C(=O)Nc2ccc(Oc3ccnc4cc(OC)c(OC)cc34)cn2)n1 (centres unmarked) [Compound 15]	≥ 1000	1000 to 10000
COc1cc2nccc(Oc3ccc(NC(=O)c4nn(CC(C)O)cc4OCC(F)(F)F)nc3)c2cc1OC (centres unmarked) [Compound 17]	< 500	< 1000
COc1cc2nccc(Oc3ccc(NC(=O)c4nn(CCCO)cc4OCC(F)(F)F)nc3)c2cc1OC [Compound 18]	< 500	< 1000
COc1cc2nccc(Oc3ccc(NC(=O)c4nn(CC(C)=O)cc4OCC(F)(F)F)nc3)c2cc1OC [Compound 19]	< 500	< 1000
CCC(=O)n1cc(OCC(F)(F)F)c(C(=O)Nc2ccc(Oc3ccnc4cc(OC)c(OC)cc34)cn2)n1 [Compound 20]	< 500	< 1000
COc1cc2nccc(Oc3ccc(NC(=O)c4nn(CC(C)C)cc4OCC(F)(F)F)nc3)c2cc1OC [Compound 21]	< 500	< 1000
COc1cc2nccc(Oc3ccc(NC(=O)c4nn(C(C)(C)C)cc4OCC(F)(F)F)nc3)c2cc1OC [Compound 22]	< 500	< 1000
CCCn1cc(NCC(F)(F)F)c(C(=O)Nc2ccc(Oc3ccnc4cc(OC)c(OC)cc34)cn2)n1 [Compound 23]	< 500	< 1000
COc1cc2nccc(Oc3ccc(NC(=O)c4nn(C5CCC5)cc4OCC(F)(F)F)nc3)c2cc1OC [Compound 24]	< 500	< 1000
COc1cc2nccc(Oc3ccc(NC(=O)c4nn(C[C@@H](C)O)cc4OCC(F)(F)F)nc3)c2cc1OC [Compound 29]	< 500	< 1000
COc1cc2nccc(Oc3ccc(NC(=O)c4nn(C[C@H](C)O)cc4OCC(F)(F)F)nc3)c2cc1OC [Compound 30]	< 500	< 1000
CCCn1cc(OCCC(F)(F)F)c(C(=O)Nc2ccc(Oc3ccnc4cc(OC)c(OC)cc34)cn2)n1 [Compound 31]	< 500	< 1000
COc1cc2nccc(Oc3ccc(NC(=O)c4nn(C)cc4OCC(F)(F)F)nc3)c2cc1OC [Compound 33]	< 500	< 1000
CCCn1cc(N(C)CC2CCOCC2)c(C(=O)Nc2ccc(Oc3ccnc4cc(OC)c(OC)cc34)cn2)n1 [Compound 34]	≥ 1000	1000 to 10000
COc1cc2nccc(Oc3ccc(NC(=O)c4nn(CCC#N)cc4OCC(F)(F)F)nc3)c2cc1OC [Compound 39]	< 500	< 1000
COc1cc2nccc(Oc3ccc(NC(=O)c4nn(C5CCCC5)cc4OCC(F)(F)F)nc3)c2cc1OC [Compound 40]	< 500	< 1000
COc1cc2nccc(Oc3ccc(NC(=O)c4nn(CC5CC5)cc4OCC(F)(F)F)nc3)c2cc1OC [Compound 41]	< 500	< 1000
COc1cc2nccc(Oc3ccc(NC(=O)c4nn(CC5CCC5)cc4OCC(F)(F)F)nc3)c2cc1OC [Compound 42]	< 500	< 1000
COc1cc2nccc(Oc3ccc(NC(=O)c4nn(CC5CCCCC5)cc4OCC(F)(F)F)nc3)c2cc1OC [Compound 43]	< 500	< 1000
COc1cc2nccc(Oc3ccc(NC(=O)c4nn(CC5CCOC5)cc4OCC(F)(F)F)nc3)c2cc1OC (centres unmarked) [Compound 44]	< 500	< 1000
COc1cc2nccc(Oc3ccc(NC(=O)c4nn(C5CCCC5)cc4OCC(F)(F)F)c(F)c3)c2cc1OC [Compound 47]	500 to 1000	< 1000
COc1cc2nccc(Oc3ccc(NC(=O)c4nn(C5CCCC5)cc4OCC(F)(F)F)cc3C)c2cc1OC [Compound 57]	500 to 1000	< 1000
COc1cc2nccc(Oc3ccc(NC(=O)c4nn(C5CCCC5)cc4OCC(F)(F)F)cc3)c2cc1OC [Compound 60]	500 to 1000	1000 to 10000
COc1cc2nccc(Oc3ccc(NC(=O)c4nn(C5CCOC5)cc4OCC(F)(F)F)cc3)c2cc1OC (centres unmarked) [Compound 62]	≥ 1000	1000 to 10000

The next lines start with results.

IC50 [2] [nM]	Structure (SMILES)	IC50 [1] [nM]
500 to 1000	CCCn1cc(OCC(F)(F)F)c(C(=O)Nc2ccc(Oc3ccnc4cc(OC)c(OC)cc34)c(F)c2)n1 [Compound 25]	1000 to 10000
< 500	CCCn1cc(OCC(F)(F)F)c(C(=O)Nc2ccc(Oc3ccnc4cc(OC)c(OC)cc34)c(C)c2)n1 [Compound 26]	1000 to 10000
≥ 1000	CCCn1cc(OCC(F)(F)F)c(C(=O)Nc2ccc(Oc3ccnc4cc(OC)c(OC)cc34)cc2C)n1 [Compound 27]	1000 to 10000
500 to 1000	CCCn1cc(OCC(F)(F)F)c(C(=O)Nc2ccc(Oc3ccnc4cc(OC)c(OC)cc34)cc2F)n1 [Compound 28]	1000 to 10000
< 500	CCCn1cc(OCC(F)(F)F)c(C(=O)Nc2ccc(Oc3ccnc4cc(OC)c(OC)cc34)nn2)n1 [Compound 32]	1000 to 10000
≥ 1000	CCCn1cc(OC(C)C)c(C(=O)Nc2ccc(Oc3ccnc4cc(OC)c(OC(F)(F)F)cc34)c(F)c2)n1 [Compound 35]	1000 to 10000
< 500	CCCCn1cc(OCC(F)(F)F)c(C(=O)Nc2ccc(Oc3ccnc4cc(OC)c(OC)cc34)cn2)n1 [Compound 36]	< 1000
< 500	COc1cc2nccc(Oc3ccc(NC(=O)c4nn(C)cc4OCC(F)(F)F)cc3C)c2cc1OC [Compound 37]	< 1000
500 to 1000	CCCn1cc(OCC(F)(F)F)c(C(=O)Nc2ccc(Oc3ccnc4cc(OC)c(OC)cc34)cc2)n1 [Compound 38]	< 1000
< 500	COc1cc2nccc(Oc3ccc(NC(=O)c4nn(C)cc4OCC(F)(F)F)c(F)c3)c2cc1OC [Compound 45]	1000 to 10000
500 to 1000	COc1cc2nccc(Oc3ccc(NC(=O)c4nn(CCO)cc4OCC(F)(F)F)c(F)c3)c2cc1OC [Compound 46]	1000 to 10000
500 to 1000	COc1cc2nccc(Oc3ccc(NC(=O)c4nn(CC(C)C)cc4OCC(F)(F)F)c(F)c3)c2cc1OC [Compound 48]	< 1000
≥ 1000	COCCn1cc(OCC(F)(F)F)c(C(=O)Nc2ccc(Oc3ccnc4cc(OC)c(OC)cc34)cc2F)n1 [Compound 49]	1000 to 10000
500 to 1000	COc1cc2nccc(Oc3ccc(NC(=O)c4nn(C)cc4OCC(F)(F)F)cc3F)c2cc1OC [Compound 50]	1000 to 10000
< 500	COc1cc2nccc(Oc3ccc(NC(=O)c4nn(CCO)cc4OCC(F)(F)F)cc3F)c2cc1OC [Compound 51]	< 1000
≥ 1000	COc1cc2nccc(Oc3ccc(NC(=O)c4nn(C5CCCC5)cc4OCC(F)(F)F)cc3F)c2cc1OC [Compound 52]	< 1000
500 to 1000	COc1cc2nccc(Oc3ccc(NC(=O)c4nn(CC(C)C)cc4OCC(F)(F)F)cc3F)c2cc1OC [Compound 53]	< 1000
≥ 1000	COCCn1cc(OCC(F)(F)F)c(C(=O)Nc2ccc(Oc3ccnc4cc(OC)c(OC)cc34)c(F)c2)n1 [Compound 54]	< 1000
≥ 1000	COc1cc2nccc(Oc3ccc(NC(=O)c4nn(C5CCOC5)cc4OCC(F)(F)F)cc3F)c2cc1OC (centres unmarked) [Compound 55]	1000 to 10000
< 500	COc1cc2nccc(Oc3ccc(NC(=O)c4nn(CCO)cc4OCC(F)(F)F)cc3C)c2cc1OC [Compound 56]	< 1000
≥ 1000	COc1cc2nccc(Oc3ccc(NC(=O)c4nn(CC(C)C)cc4OCC(F)(F)F)cc3C)c2cc1OC [Compound 58]	1000 to 10000
< 500	COc1cc2nccc(Oc3ccc(NC(=O)c4nn(CCO)cc4OCC(F)(F)F)cc3)c2cc1OC [Compound 59]	< 1000
≥ 1000	COCCn1cc(OCC(F)(F)F)c(C(=O)Nc2ccc(Oc3ccnc4cc(OC)c(OC)cc34)cc2)n1 [Compound 61]	1000 to 10000
